Where two headings read alike, the source gives them in different places.
Assays:
[1] = Dose proportionality of SC LD/CD, clinical trial ND0612-001 (Example 2a); assay type: in vivo, healthy male subjects (human); details: 24 hour continuous SC infusion of LD (6% w/w)/CD (1.4% w/w) at 80, 120, 160, 200, 240 μl/h
Description: Subjects were administered with a composition comprising LD (6% w/w)/CD (1.4% w/w) by way of a 24 hour continuous infusion at varying infusion rates: • Group 1: 80 μl/h • Group 2: 120 μl/h • Group 3: 160 μl/h • Group 4: 200 μl/h • Group 5: 240 μl/h Several PK parameters were derived for both LD and CD in the dose proportionality assessment, including AUC (hr*ng/mL), Cmax (ng/mL), C15 (ng/mL), and C24 (ng/mL).

[2] = Plasma exposure of LD and CD after SC infusion, oral IR tablet, and SC + oral coadministration (crossover, Example 1); assay type: in vivo, healthy subjects (human); details: for 1. Treatment A AUC (0-8) × 0.853* / AUC(0-t): human; for 1. Treatment A AUC (0-8) × 0.853*: sc
Source text: A test was run in order to assess the plasma exposure of levodopa (LD) following the coadministration of LD and carbidopa (CD) in both subcutaneous (SC) and oral administrations. Accordingly, results obtained from a combined SC+oral administration were compared to results obtained from SC administration alone and from oral administration alone. An additive plasma exposure and PK profile was expected, i.e., it was expected that the SC+oral coadministration would provide results equal to the additive results of the SC and oral administrations, when each was administered separately.
16 healthy subjects (18-50 years) were treated in a crossover manner, i.e., sequentially, with a washout period of 6 days between the following two treatments:
Treatment A: A total dose of 180/22.5 mg LD/CD (formulation A) was administered by SC infusion over the course of 8 hours, at a steady infusion rate.
Treatment B: An immediate release (IR) tablet of 100/25 mg LD/CD was administered orally at time 0 h.
Following a 32 hour washout period, the same 16 healthy subjects were administered with LC/CD both orally and subcutaneously according to the following treatment:
Treatment C: A dose of 153.6/19.2 LD/CD (formulation A) was administered by SC infusion over the course of 8 hours, at a steady infusion rate, combined with a single co-administration of an oral IR LD/CD 100/25 mg tablet, 4 hours after the initiation of the infusion. Total LD/CD dose: 253.6/44.2 mg.
Blood samples were collected at the following time points:
Treatment A: 0 (prior to treatment initiation), 0.5 h, 1 h, 2 h, 3 h, 4 h, 5 h, 5.5 h, 6 h, 7 h, 8 h (prior to the end of the infusion).
Treatment B: 0 (prior to treatment initiation), 0.5 h, 1 h, 2 h, 3 h, 4 h.
The normalized AUC0-8 of LD and CD of Treatment C, resulting from the combined SC and oral treatment, as described above, was calculated and compared to the sum of the normalized LD and CD AUCs obtained from Treatment A (AUC0-8 resulting from 8 h SC infusion) and Treatment B (AUC0-4 resulting from one IR oral tablet).

[3] = Plasma carbidopa Cmax after SC administration of several carbidopa doses, clinical trial ND0612-005a and ND0612-005b (Example 2b); assay type: in vivo, subjects (human); details: SC over 24 hours; 60 mg/ml levodopa with 7.5, 6 or 4 mg/ml carbidopa; 17.9, 26.9, 33.6 mg/24 h carbidopa
Description: In a separate clinical trial (ND0612-005a and ND0612-005b, open label design studies), the plasma carbidopa levels were tested in view of the subcutaneous administration of several carbidopa doses. Three formulations, comprising 60 mg/ml levodopa and (a) 7.5 mg/ml; (b) 6 mg/ml; or 4 mg/ml of carbidopa, were administered to three groups of subjects over the course of 24 hours, providing a total of 17.9 mg/24 h carbidopa to each subject in the first group, 26.9 mg/24 h carbidopa to each subject in the second group and 33.6 mg/24 h carbidopa to each subject in the third group.

in vivo = details: for AUC: female, pig, in vivo, sc, 600 mg, SC treatment AUC (G1) Actual
Description: The objective of this study was to determine the pharmacokinetics (PK) of levodopa (LD) in domestic pigs following continuous subcutaneous (SC) infusion of a levodopa prodrug, exemplified using LD-Tyr, administered concomitantly with oral Levodopa.
Table 3 provides the LD-Tyr formulation tested in this study: […]
The study consisted of 3 dosing sessions in which 5 female pigs (Swine/Landrace×large White, ˜40-50 kg each) were treated with the LD-Tyr solution of Table 3 and/or Sinemet IR oral tablets (CD/LD 25/100 mg tablet) in a cross-over design with up to 4-day washout period between dosing sessions, as detailed in the following tables:
As presented in Tables 4 and 5 above, the study included the following three test groups: • G1—received only SC LD-Tyr (600 mg total daily dose); • G2—received only oral LD (300 mg total daily dose); and • G3—received both SC LD-Tyr (600 mg total daily dose) and oral LD (200 mg total daily dose). Pharmacokinetics Blood Collection
Blood samples for the determination of LD-Tyr (in groups 1 and 3), as well as LD and CD plasma levels (in all groups) were collected from the pigs at the following timepoints: • 0 (pre-dose), 30 min, 1 h, 2 h, 3 h, 4 h, 4.5 h, 5 h, 6 h, 7 h, 8 h, 8.5 h, 9 h, 10 h, 11 h, 13 h, 15 h 18 h following treatment initiation. In case of pump occlusion (groups 1 and 3) resulting in infusion cessation, no further blood samples will be collected. Tablets were administrated before blood collection (time 0, 4 and 8 h). Bioanalysis
Plasma samples were analyzed for concentration of LD-Tyr (groups 1 and 3), as well as LD and CD (for all groups) using a qualified LC-MS/MS analytical method.
PK parameters (at least Cmax, tmax, t1/2, AUC) for LD-Tyr, LD and CD were calculated by noncompartmental methods using appropriate software (e.g. Phoenix® WinNonlin®). Individual and mean was calculated for quantitative parameters.
The LD exposure obtained from the SC infusion is considered to be the baseline.

Structure (SMILES)	dose proportionality of PK parameters (AUC, Cmax, C15, C24) [1]	1. Treatment A AUC (0-8) × 0.853* ([2]; in vivo)	AUC(0-t) ([2]; in vivo, plasma CD, formulation A 153.6/19.2 LD/CD SC infusion over 8 h + oral IR LD/CD 100/25 mg tablet at 4 h, individual subjects, read-out: 4. Treatment C AUC (0-8) [Observed])	AUC(0-t) ([2]; in vivo, plasma CD, formulation A 180/22.5 mg LD/CD SC infusion over 8 h, AUC multiplied by 0.853, individual subjects, read-out: 1. Treatment A AUC (0-8) × 0.853*)	AUC(0-t) ([2]; in vivo, plasma CD, oral IR tablet 100/25 mg LD/CD at 0 h, individual subjects, read-out: 2. Treatment B AUC (0-4))	Observed (C) vs. Additive Ratio ([2]; in vivo)	dose proportionality of carbidopa Cmax [3]	AUC(0-t) ([2]; in vivo, plasma LD, formulation A 153.6/19.2 LD/CD SC infusion over 8 h + oral IR LD/CD 100/25 mg tablet at 4 h, individual subjects, read-out: 4. Treatment C AUC (0-8) [Observed])	AUC(0-t) ([2]; in vivo, plasma LD, formulation A 180/22.5 mg LD/CD SC infusion over 8 h, AUC multiplied by 0.853 to equal SC dose of Treatment C, individual subjects, read-out: 1. Treatment A AUC (0-8) × 0.853*)	AUC(0-t) ([2]; in vivo, plasma LD, oral IR tablet 100/25 mg LD/CD at 0 h, individual subjects, read-out: 2. Treatment B AUC (0-4))	AUC(0-t) ([2]; plasma LD, formulation A 180/22.5 mg LD/CD SC infusion over 8 h, AUC multiplied by 0.853 to equal SC dose of Treatment C, individual subjects, read-out: 1. Treatment A AUC (0-8) × 0.853*)	3. Combined 1 + 2 [Estimated] ([2]; plasma LD, sum of normalized Treatment A and Treatment B AUCs, individual subjects)	AUC (in vivo; Landrace x large White)	AUC (in vivo; plasma LD AUC, pigs, SC LD-Tyr/CD 600/26 mg over 8 hrs only, individual animals)	increase of LD plasma exposure by oral add-ons on top of SC administration, versus predicted (average) (in vivo; pigs, SC LD-Tyr/CD + oral LD/CD)
C[C@@](Cc1ccc(O)c(O)c1)(NN)C(=O)O [CD, carbidopa]	demonstrated dose proportionality	900	1050 ng·h/mL	942 ng·h/mL	322 ng·h/mL	lower than expected	clear dose proportionality								
N[C@@H](Cc1ccc(O)c(O)c1)C(=O)O [LD, L-3,4-dihydroxyphenylalanine]	demonstrated dose proportionality	2412				higher than expected		4770 ng·h/mL	2310 ng·h/mL	1420 ng·h/mL	3090 ng·h/mL	3087	17600 ng·h/mL	18000 ng·h/mL	over 50%
